Target: T1, Recombinant human cathepsin A (Homo sapiens, UniProt P10619)
T1 construct: Recombinant human cathepsin A (residues 29-480, with a C-terminal 10-His tag); 10-His (C); purchased R&D Systems 1049-SE
T1 sequence (P10619 29-326 limits assumed): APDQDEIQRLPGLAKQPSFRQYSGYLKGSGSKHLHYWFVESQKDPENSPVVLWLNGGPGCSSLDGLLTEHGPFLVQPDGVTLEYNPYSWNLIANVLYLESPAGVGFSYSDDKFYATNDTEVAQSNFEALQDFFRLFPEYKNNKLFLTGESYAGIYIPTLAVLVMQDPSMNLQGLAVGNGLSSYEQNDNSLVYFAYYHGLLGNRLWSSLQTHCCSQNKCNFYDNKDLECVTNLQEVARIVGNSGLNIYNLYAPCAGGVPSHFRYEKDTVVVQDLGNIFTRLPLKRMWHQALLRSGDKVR
T1 sequence (P10619 327-480 limits assumed): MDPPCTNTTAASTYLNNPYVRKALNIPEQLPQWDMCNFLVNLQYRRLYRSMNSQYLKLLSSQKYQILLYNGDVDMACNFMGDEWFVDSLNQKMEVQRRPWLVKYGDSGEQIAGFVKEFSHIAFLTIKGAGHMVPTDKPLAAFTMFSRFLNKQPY
Assay: Cathepsin A inhibitory activity
Type: biochemical
Settings: activated recombinant human cathepsin A 833 ng/ml, Bodipy FL-labeled bradykinin 2 μM, pH 5.5, 15 min room temperature
Method: a) Cathepsin a Inhibitory Activity
Recombinant human cathepsin A (residues 29-480, with a C-terminal 10-His tag; R&D Systems, #1049-SE) was proteolytically activated with recombinant human cathepsin L (R&D Systems, #952-CY). Briefly, cathepsin A was incubated at 10 μg/ml with cathepsin L at 1 μg/ml in activation buffer (25 mM 2-(morpholin-4-yl)-ethanesulfonic acid (MES), pH 6.0, containing 5 mM dithiothreitol (DTT)) for 15 min at 37° C. Cathepsin L activity was then stopped by the addition of the cysteine protease inhibitor E-64 (N-(trans-epoxysuccinyl)-L-leucine-4-guanidinobutylamide; Sigma-Aldrich, #E3132; dissolved in activation buffer/DMSO) to a final concentration of 10 μM.
The activated cathepsin A was diluted in assay buffer (25 mM MES, pH 5.5, containing 5 mM DTT) and mixed with the test compound (dissolved in assay buffer containing (v/v) 3% DMSO) or, in the control experiments, with the vehicle in a multiple assay plate. After incubation for 15 min at room temperature, as substrate then bradykinin carrying an N-Terminal®Bodipy FL (4,4-difluoro-5,7-dimethyl-4-bora-3a,4a-diaza-s-indacene-3-propionyl) label (JPT Peptide Technologies GmbH; dissolved in assay buffer) was added to the mixture. The final concentration of cathepsin A was 833 ng/ml and the final concentration of labeled bradykinin 2 μM. After incubation for 15 min at room temperature the reaction was stopped by the addition of stop buffer (130 mM 2-(4-(2-hydroxy-ethyl)-piperazin-1-yl)-ethanesulfonic acid, pH 7.4, containing (v/v) 0.013%®Triton X-100, 0.13% Coating Reagent 3 (Caliper Life Sciences), 6.5% DMSO and 20 μM ebelactone B (Sigma, #E0886)).
Uncleaved substrate and product were then separated by a microfluidic capillary electrophoresis on a LabChip® 3000 Drug Discovery System (12-Sipper-Chip; Caliper Life Sciences) and quantified by determination of the respective peak areas. Substrate turnover was calculated by dividing product peak area by the sum of substrate and product peak areas, and the enzyme activity and the inhibitory effect of the test compound thus quantified. From the percentage of inhibition of cathepsin A activity observed with the test compound at several concentrations, the inhibitory concentration IC50, i.e. the concentration which effects 50% inhibition of enzyme activity was, calculated.

| SMILES | IC50 |
| --- | --- |
| CN(C(=O)c1ccccc1)c1cc(C(=O)N[C@@H](CC(=O)O)c2cccc(Cl)c2)nn1-c1ccccc1 [Example 71, (S)-3-{[5-(Benzoyl-methyl-amino)-1-phenyl-1H-pyrazole-3-carbonyl]-amino}-3-(3-chloro-phenyl)-propionic acid] | 56.7 nM |
| Nc1cc(C(=O)NC(CC(=O)O)c2ccc(-c3ccc(F)cc3)cc2)nn1-c1ccccc1F (stereo not drawn) [Example 4, 3-{[5-Amino-1-(2-fluoro-phenyl)-1H-pyrazole-3-carbonyl]-amino}-3-(4′-fluoro-biphenyl-4-yl)-propionic acid] | 18.5 nM |
| Cc1ccc([C@H](CC(=O)O)NC(=O)c2cc(N(C)C(=O)c3ccccc3)n(-c3ccccc3)n2)cc1 [Example 72, (S)-3-{[5-(Benzoyl-methyl-amino)-1-phenyl-1H-pyrazole-3-carbonyl]-amino}-3-p-tolyl-propionic acid] | 102 nM |
| Cc1ccccc1[C@H](CC(=O)O)NC(=O)c1cc(N(C)CC(O)C(C)(C)C)n(-c2ccccc2)n1 (stereo partly drawn) [Example 65, (S)-3-({5-[(2-Hydroxy-3,3-dimethyl-butyl)-methyl-amino]-1-phenyl-1H-pyrazole-3-carbonyl}-amino)-3-o-tolyl-propionic acid] | 78.3 nM |
| Cc1ccccc1[C@H](CC(=O)O)NC(=O)c1cc(N2CCCS2(=O)=O)n(-c2ccccc2)n1 [Example 16, (S)-3-{[5-(1,1-Dioxo-1lambda6-isothiazolidin-2-yl)-1-phenyl-1H-pyrazole-3-carbonyl]-amino}-3-o-tolyl-propionic acid] | 17.9 nM |
| O=C(O)CC(Cc1ccccc1)NC(=O)c1cc(NC(=O)c2ccccc2)n(-c2ccccc2)n1 (stereo not drawn) [Example 75, 3-[(5-Benzoylamino-1-phenyl-1H-pyrazole-3-carbonyl)-amino]-4-phenyl-butyric acid] | 370 nM |
| Cc1ccccc1[C@H](CC(=O)O)NC(=O)c1cc(NC(=O)Nc2ccccc2)n(-c2ccccc2)n1 [Example 10, (S)-3-{[1-Phenyl-5-(3-phenyl-ureido)-1H-pyrazole-3-carbonyl]-amino}-3-o-tolyl-propionic acid] | 14 nM |
| Cc1ccc(C(=O)Nc2cc(C(=O)N[C@@H](CC(=O)O)c3ccc(Cl)cc3Cl)nn2-c2ccccc2)o1 [Example 62, (S)-3-(2,4-Dichloro-phenyl)-3-({5-[(5-methyl-furan-2-carbonyl)-amino]-1-phenyl-1H-pyrazole-3-carbonyl}-amino)-propionic acid] | 175 nM |
| O=C(O)C[C@H](NC(=O)c1cc(NC(=O)c2ccccc2)n(-c2ccccc2)n1)c1ccccc1C(F)(F)F [Example 84, (S)-3-[(5-Benzoylamino-1-phenyl-1H-pyrazole-3-carbonyl)-amino]-3-(2-trifluoromethyl-phenyl)-propionic acid] | 386 nM |
| Cc1ccccc1[C@H](CC(=O)O)NC(=O)c1cc(N2CCCC2=O)n(-c2ccccc2F)n1 [Example 14, (S)-3-{[1-(2-Fluoro-phenyl)-5-(2-oxo-pyrrolidin-1-yl)-1H-pyrazole-3-carbonyl]-amino}-3-o-tolyl-propionic acid] | 25.8 nM |
| Cc1ccccc1[C@H](CC(=O)O)NC(=O)c1cc(N(CC2CC2)CC2CC2)n(-c2ccccc2)n1 [Example 51, (S)-3-{[5-(Bis-cyclopropylmethyl-amino)-1-phenyl-1H-pyrazole-3-carbonyl]-amino}-3-o-tolyl-propionic acid] | 524 nM |

Further lines, results first:

| IC50 | SMILES |
| --- | --- |
| 25.5 nM | Cc1ccccc1[C@H](CC(=O)O)NC(=O)c1cc(N2CCCC2=O)n(-c2ccccc2)n1 [Example 15, (S)-3-{[5-(2-Oxo-pyrrolidin-1-yl)-1-phenyl-1H-pyrazole-3-carbonyl]-amino}-3-o-tolyl-propionic acid] |
| 200 nM | Nc1cc(C(=O)NC(CC(=O)O)c2cc(Cl)ccc2Cl)nn1-c1ccccc1F (stereo not drawn) [Example 9, 3-{[5-Amino-1-(2-fluoro-phenyl)-1H-pyrazole-3-carbonyl]-amino}-3-(2,5-dichloro-phenyl)-propionic acid] |
| 106 nM | O=C(O)C[C@H](NC(=O)c1cc(NC(=O)c2ccccc2)n(-c2ccccc2)n1)c1ccc(Cl)cc1Cl [Example 67, (S)-3-[(5-Benzoylamino-1-phenyl-1H-pyrazole-3-carbonyl)-amino]-3-(2,4-dichloro-phenyl)-propionic acid] |
| 2520 nM | O=C(O)CC(NC(=O)c1cc2[nH]c3ccccc3n2n1)c1ccc(F)cc1 (stereo not drawn) [Example 34, 3-[(4H-Benzo[4,5]imidazo[1,2-b]pyrazole-2-carbonyl)-amino]-3-(4-fluoro-phenyl)-propionic acid] |
| 3120 nM | O=C(O)CC(NC(=O)c1cc2[nH]c3ccccc3n2n1)c1cccc(F)c1 (stereo not drawn) [Example 23, 3-[(4H-Benzo[4,5]imidazo[1,2-b]pyrazole-2-carbonyl)-amino]-3-(3-fluoro-phenyl)-propionic acid] |
| 23.2 nM | Nc1cc(C(=O)N[C@@H](CC(=O)O)c2cccc(Cl)c2Cl)nn1-c1ccccc1F [Example 8, (S)-3-{[5-Amino-1-(2-fluoro-phenyl)-1H-pyrazole-3-carbonyl]-amino}-3-(2,3-dichloro-phenyl)-propionic acid] |
| 64.5 nM | Cc1ccccc1[C@H](CC(=O)O)NC(=O)c1cc(N2CCCCC2=O)n(-c2ccccc2)n1 [Example 17, (S)-3-{[5-(2-Oxo-piperidin-1-yl)-1-phenyl-1H-pyrazole-3-carbonyl]-amino}-3-o-tolyl-propionic acid] |
| 28.6 nM | Cc1ccccc1[C@H](CC(=O)O)NC(=O)c1cc(NC(=O)C(C)(C)C)n(-c2ccccc2)n1 [Example 52, (S)-3-{[5-(2,2-Dimethyl-propionylamino)-1-phenyl-1H-pyrazole-3-carbonyl]-amino}-3-o-tolyl-propionic acid] |
| 31.3 nM | CC(C)(C)C(=O)Nc1cc(C(=O)N[C@@H](CC(=O)O)c2ccccc2Cl)nn1-c1ccccc1 [Example 54, (S)-3-(2-Chloro-phenyl)-3-{[5-(2,2-dimethyl-propionylamino)-1-phenyl-1H-pyrazole-3-carbonyl]-amino}-propionic acid] |
| 392 nM | O=C(O)C[C@H](NC(=O)c1cc2[nH]c3ccccc3n2n1)c1ccccc1Cl [Example 49, (S)-3-[(4H-Benzo[4,5]imidazo[1,2-b]pyrazole-2-carbonyl)-amino]-3-(2-chloro-phenyl)-propionic acid] |
| 219 nM | Cc1ccccc1[C@H](CC(=O)O)NC(=O)c1cc2[nH]c3ccccc3n2n1 [Example 38, (S)-3-[(4H-Benzo[4,5]imidazo[1,2-b]pyrazole-2-carbonyl)-amino]-3-o-tolyl-propionic acid] |
| 900 nM | Cc1ccccc1C(CC(=O)O)NC(=O)c1cc2[nH]c3ccccc3n2n1 (stereo not drawn) [Example 35, 3-[(4H-Benzo[4,5]imidazo[1,2-b]pyrazole-2-carbonyl)-amino]-3-o-tolyl-propionic acid] |
| 49.7 nM | Cc1ccccc1[C@H](CC(=O)O)NC(=O)c1cc(Nc2ccccn2)n(-c2ccccc2)n1 [Example 19, (S)-3-{[1-Phenyl-5-(pyridin-2-ylamino)-1H-pyrazole-3-carbonyl]-amino}-3-o-tolyl-propionic acid] |
| 1750 nM | O=C(O)CC(NC(=O)c1cc2[nH]c3ccccc3n2n1)c1ccccc1F (stereo not drawn) [Example 24, 3-[(4H-Benzo[4,5]imidazo[1,2-b]pyrazole-2-carbonyl)-amino]-3-(2-fluoro-phenyl)-propionic acid] |
| 8.4 nM | Cc1ccccc1[C@H](CC(=O)O)NC(=O)c1cc(N2CCCC2)n(-c2ccccc2F)n1 [Example 13, (S)-3-{[1-(2-Fluoro-phenyl)-5-pyrrolidin-1-yl-1H-pyrazole-3-carbonyl]-amino}-3-o-tolyl-propionic acid] |
| 1110 nM | O=C(O)CC(NC(=O)c1cc2[nH]c3ccccc3n2n1)c1cccc2c1OCO2 (stereo not drawn) [Example 22, 3-Benzo[1,3]dioxol-4-yl-3-[(4H-benzo[4,5]imidazo[1,2-b]pyrazole-2-carbonyl)-amino]-propionic acid] |

Source: US8962671B2, “Amino-substituted 3-heteroaroylamino-propionic acid derivatives and their use as pharmaceuticals” (Sanofi, priority 2011, dated 2015)
